Reference: patent US11981696B2, “Fluoro-pyridinone phosphates and boronates useful as antibacterial agents” (Pfizer Inc., priority 2018, dated 2024)
In brackets after ≈: the same amount, converted by molar mass.

Assays:
hepatocytes from rat = assay: In vitro hepatocyte study, rat; format: in vitro ADME; conditions: concomitant appearance of parent compound and its glucuronide metabolite
Description: (§1) In vitro hepatocyte study: The disposition of (2R)-4-[5-fluoro-4-(2-fluoro-4-methoxyphenyl)-2-oxopyridin-1(2H)-yl]-N-hydroxy-2-methyl-2-(methylsulfonyl) butanamide phosphate was examined in hepatocytes from mouse, rat, dog, monkey and human. In each case, qualitatively it was observed that the (2R)-4-[5-fluoro-4-(2-fluoro-4-methoxyphenyl)-2-oxopyridin-1(2H)-yl]-N-hydroxy-2-methyl-2-(methylsulfonyl) butanamide phosphate disappeared, concomitant with appearance of (2R)-4-[5-fluoro-4-(2-fluoro-4-methoxyphenyl)-2-oxopyridin-1(2H)-yl]-N-hydroxy-2-methyl-2-(methylsulfonyl) butanamide (parent compound) and a glucuronide metabolite of the parent compound. In Vivo Studies

hepatocytes from monkey = assay: In vitro hepatocyte study, monkey; format: in vitro ADME; conditions: concomitant appearance of parent compound and its glucuronide metabolite
Description: as §1

hepatocytes from human = assay: In vitro hepatocyte study, human; format: in vitro ADME; conditions: concomitant appearance of parent compound and its glucuronide metabolite
Description: as §1

hepatocytes from dog = assay: In vitro hepatocyte study, dog; format: in vitro ADME; conditions: concomitant appearance of parent compound and its glucuronide metabolite
Description: as §1

hepatocytes from mouse = assay: In vitro hepatocyte study, mouse; format: in vitro ADME; conditions: concomitant appearance of parent compound and its glucuronide metabolite
Description: as §1

[1] = Solubility in normal saline; format: physicochemical; conditions: saline or isotonic
Escherichia coli EC-1 = assay: MIC determination (CLSI), EC-1; format: cell-based; conditions: EC1, read-out: EC-1 MIC
Description: (§2) B) MIC determinations: The in vitro antibacterial activity of compounds was evaluated by minimum inhibitory concentration (MIC) testing according to Clinical and Laboratory Standards Institute (CLSI). See: Clinical and Laboratory Standards Institute. Methods for Dilution Antimicrobial Susceptibility Tests for Bacteria that Grow Aerobically; Approved Standard-Eighth Edition. CLSI document M7-A8 [ISBN 1-56238-689-1]. Clinical and Laboratory Standards Institute, 940 West Valley Road, Suite 1400, Wayne, Pennsylvania 19087-1898 USA, 2006; also Clinical and Laboratory Standards Institute. Performance Standards for Antimicrobial Susceptibility Testing; Twentieth Informational Supplement. CLSI document M100-S20 [ISBN1-56238-716-2]. Clinical and Laboratory Standards Institute.
(§3) The MIC determination is a standard laboratory method for evaluating the antibacterial activity of a compound. […] The MIC is then determined by visually inspecting the drug effect at each concentration, and identifying the lowest drug concentration that has inhibited bacterial growth as compared to the drug free control. […]
(§4) The MIC values described in Table 3 below were derived from assays wherein each test compound was evaluated in duplicate. […] While a single MIC is reported for each compound and each microorganism, the reader should not conclude that each compound was only tested once. […]

[2] = system: Pseudomonas aeruginosa UI-18 (PA-7); assay: MIC determination (CLSI), PA-7; format: cell-based; conditions: wild-type UI-18, lower of duplicate values
Description: as §2, §3, §4

[3] = system: Klebsiella pneumoniae KP-3700; assay: MIC determination (CLSI), KP-3700; format: cell-based; conditions: ciprofloxacin-resistant, ESBL clinical isolate; lower of duplicate values
Description: as §2, §3, §4

[4] = system: Acinetobacter baumannii/haemolyticus AB-3167; assay: MIC determination (CLSI), AB-3167; format: cell-based; conditions: multidrug-resistant clinical isolate, lower of duplicate values
Description: as §2, §3, §4

Compound	disposition in hepatocytes (qualitative) (hepatocytes from rat)	disposition in hepatocytes (qualitative) (hepatocytes from monkey)	disposition in hepatocytes (qualitative) (hepatocytes from human)	disposition in hepatocytes (qualitative) (hepatocytes from dog)	disposition in hepatocytes (qualitative) (hepatocytes from mouse)	solubility [1] [mg/mL]	MIC (Escherichia coli EC-1) [µg/mL]	MIC [2] [µg/mL]	KP-3700 MIC [3] [µg/mL]	MIC [4] [µg/mL]
COc1ccc(-c2cc(=O)n(CC[C@](C)(C(=O)NOP(=O)(O)O)S(C)(=O)=O)cc2F)c(F)c1 [Example 1, (2R)-4-(5-fluoro-4-(2-fluoro-4-methoxyphenyl)-2-oxopyridin-1(2H)-yl)-2-methyl-2-(methylsulfonyl)butanamido phosphate]	disappeared	disappeared	disappeared	disappeared	disappeared	–	–	–	–	–
COc1ccc(-c2cc(=O)n(CC[C@](C)(C(=O)NOP(=O)([O-])[O-])S(C)(=O)=O)cc2F)c(F)c1.[Na+].[Na+] [Example 3, (R)-4-(5-fluoro-4-(2-fluoro-4-methoxyphenyl)-2-oxopyridin-1(2H)-yl)-2-methyl-2-(methylsulfonyl)butanamido phosphate, Disodium Salt]	–	–	–	–	–	≥ 20	–	–	–	–
COc1ccc(-c2cc(=O)n(CC[C@](C)(C(=O)NO)S(C)(=O)=O)cc2F)c(F)c1 [Parent Compound, (2R)-4-[5-fluoro-4-(2-fluoro-4-methoxyphenyl)-2-oxopyridin-1(2H)-yl]-N-hydroxy-2-methyl-2-(methylsulfonyl)butanamide]	–	–	–	–	–	< 1	0.25 (≈ 0.581 µM)	0.5 (≈ 1.16 µM)	0.5	> 64
